Assay results from ChEMBL document CHEMBL1201862, “PubChem BioAssay data set” (2004).
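Cultured in 96-well plates, cells were exposed to test compound for 48 hours across five concentrations. At the GI50, growth is halved.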 Calls of active or inactive are those of the source. Rule as the data show it: active = GI50 up to about 1.1 µM and inactive = higher.

Tests used:
Assay in all cases: inhibition of tumour cell growth, NCI panel, 48 h
CCRF-CEM = system: CCRF-CEM
DMS-114 = system: DMS-114
DMS-273 = system: DMS-273
HCC 2998 = system: HCC 2998
HCT-116 = system: HCT-116
KM-20L2 = system: KM-20L2
NCI-H23 = system: NCI-H23
RPMI-8226 = system: RPMI-8226
SF-268 = system: SF-268
SF-295 = system: SF-295
SK-MEL-2 = system: SK-MEL-2
SK-MEL-5 = system: SK-MEL-5
SN12C = system: SN12C
SNB-75 = system: SNB-75
SR = system: SR
U-251 = system: U-251
UACC-62 = system: UACC-62

SMILES | GI50 (CCRF-CEM) | GI50 (DMS-114) | GI50 (DMS-273) | GI50 (HCC 2998) | GI50 (HCT-116) | GI50 (KM-20L2) | GI50 (NCI-H23) | GI50 (RPMI-8226) | GI50 (SF-268) | GI50 (SF-295) | GI50 (SK-MEL-2) | GI50 (SK-MEL-5) | GI50 (SN12C) | GI50 (SNB-75) | GI50 (SR) | GI50 (U-251) | GI50 (UACC-62)
OCCCCCNc1ccnc2cc(Cl)ccc12 | > 100 µM (inactive) | 36.7 µM (inactive) | > 100 µM (inactive) | > 100 µM (inactive) | 33.7 µM (inactive) | > 100 µM (inactive) | > 100 µM (inactive) | 31.3 µM (inactive) | > 100 µM (inactive) | 47.3 µM (inactive) | > 100 µM (inactive) | 53.5 µM (inactive) | > 100 µM (inactive) | > 100 µM (inactive) | 19.5 µM (inactive) | > 100 µM (inactive) | > 100 µM (inactive)
NC(=O)/N=C1\NC(Cc2ccccc2)C(=O)N1Cc1ccccc1 (stereo unspecified) | > 100 µM (inactive) | > 100 µM (inactive) | > 100 µM (inactive) | > 100 µM (inactive) | > 100 µM (inactive) | > 100 µM (inactive) | > 100 µM (inactive) | > 100 µM (inactive) | > 100 µM (inactive) | > 100 µM (inactive) | – | > 100 µM (inactive) | > 100 µM (inactive) | 89.9 µM (inactive) | > 100 µM (inactive) | > 100 µM (inactive) | > 100 µM (inactive)
C#CCN(N=O)C(=O)NC(CCCNC(=O)OCc1ccccc1)C(=O)OCc1ccccc1 (stereo unspecified) | 22.8 µM (inactive) | 67.3 µM (inactive) | > 100 µM (inactive) | > 100 µM (inactive) | > 100 µM (inactive) | > 100 µM (inactive) | > 100 µM (inactive) | 63.2 µM (inactive) | 18.2 µM (inactive) | > 100 µM (inactive) | > 100 µM (inactive) | > 100 µM (inactive) | > 100 µM (inactive) | > 100 µM (inactive) | 34.8 µM (inactive) | > 100 µM (inactive) | > 100 µM (inactive)
CCN1C(=O)/C(=C\c2coc3ccccc3c2=O)SC1=S | 65.6 µM (inactive) | > 100 µM (inactive) | 59 µM (inactive) | > 100 µM (inactive) | 64 µM (inactive) | > 100 µM (inactive) | 58.9 µM (inactive) | > 100 µM (inactive) | 66.8 µM (inactive) | 42 µM (inactive) | > 100 µM (inactive) | > 100 µM (inactive) | > 100 µM (inactive) | 41.2 µM (inactive) | 36.6 µM (inactive) | 28.3 µM (inactive) | 68.7 µM (inactive)
CN(C)CC1CCCC/C1=N/OC(=O)c1ccc(Cl)c(Cl)c1 (stereo unspecified) | > 100 µM (inactive) | > 100 µM (inactive) | > 100 µM (inactive) | > 100 µM (inactive) | > 100 µM (inactive) | > 100 µM (inactive) | > 100 µM (inactive) | > 100 µM (inactive) | > 100 µM (inactive) | > 100 µM (inactive) | > 100 µM (inactive) | > 100 µM (inactive) | > 100 µM (inactive) | 33.3 µM (inactive) | > 100 µM (inactive) | > 100 µM (inactive) | > 100 µM (inactive)
CC(=O)ON(C(C)=O)C1C(COC(c2ccccc2)(c2ccccc2)c2ccccc2)OC2OC3(CCCC3)OC21 (stereo unspecified) | 4.13 µM (inactive) | 5.5 µM (inactive) | 3.57 µM (inactive) | > 50.4 µM (inactive) | 5.45 µM (inactive) | 5.19 µM (inactive) | 4.24 µM (inactive) | 2.42 µM (inactive) | 10.5 µM (inactive) | 6 µM (inactive) | 27.2 µM (inactive) | 6.3 µM (inactive) | 5.13 µM (inactive) | 21.2 µM (inactive) | 3.2 µM (inactive) | 6.47 µM (inactive) | > 42 µM (inactive)
CN(C)CN(C)c1nc(N(C)C)nc(N(C)C)n1 | > 100 µM (inactive) | 90.2 µM (inactive) | > 100 µM (inactive) | > 100 µM (inactive) | > 100 µM (inactive) | > 100 µM (inactive) | > 100 µM (inactive) | > 100 µM (inactive) | > 100 µM (inactive) | > 100 µM (inactive) | > 100 µM (inactive) | > 100 µM (inactive) | > 100 µM (inactive) | > 100 µM (inactive) | > 100 µM (inactive) | > 100 µM (inactive) | > 100 µM (inactive)
O=Cc1cc2sc(C=O)cc2s1 | > 100 µM (inactive) | > 100 µM (inactive) | > 100 µM (inactive) | > 100 µM (inactive) | > 100 µM (inactive) | > 100 µM (inactive) | > 100 µM (inactive) | > 100 µM (inactive) | > 100 µM (inactive) | > 100 µM (inactive) | – | > 100 µM (inactive) | > 100 µM (inactive) | > 100 µM (inactive) | > 100 µM (inactive) | > 100 µM (inactive) | 40.6 µM (inactive)
Cc1ccc2ccc(-c3ccccc3)c3c2c1C(=O)c1ccccc1C3=O | > 100 µM (inactive) | > 100 µM (inactive) | 53.8 µM (inactive) | > 100 µM (inactive) | > 100 µM (inactive) | > 100 µM (inactive) | > 100 µM (inactive) | > 100 µM (inactive) | 45.5 µM (inactive) | 93.1 µM (inactive) | > 100 µM (inactive) | 53.6 µM (inactive) | > 100 µM (inactive) | 18.3 µM (inactive) | > 100 µM (inactive) | > 100 µM (inactive) | 92.7 µM (inactive)
CN(C)CC(=O)N1CCc2c([nH]c3ccccc23)C1c1cccnc1 (stereo unspecified) | > 100 µM (inactive) | > 100 µM (inactive) | 0.0187 µM (active) | > 100 µM (inactive) | > 100 µM (inactive) | > 100 µM (inactive) | > 100 µM (inactive) | > 100 µM (inactive) | > 100 µM (inactive) | 0.0498 µM (active) | – | > 100 µM (inactive) | > 100 µM (inactive) | 65 µM (inactive) | > 100 µM (inactive) | > 100 µM (inactive) | > 100 µM (inactive)
CCCCCCCC/C=C1\CCC(CN(C)C)C1=O (stereo unspecified) | 1.54 µM (inactive) | 4.01 µM (inactive) | 2.43 µM (inactive) | 9.57 µM (inactive) | 2.96 µM (inactive) | 7.6 µM (inactive) | 10.7 µM (inactive) | 0.211 µM (active) | 7.29 µM (inactive) | 6.5 µM (inactive) | 12 µM (inactive) | 8.45 µM (inactive) | 4.02 µM (inactive) | 5.25 µM (inactive) | 3.15 µM (inactive) | 2.14 µM (inactive) | 7.41 µM (inactive)
O=C1C2C3C=CC(C2C(=O)N1COP(=O)(O)O)C1C2C(=O)N(COP(=O)(O)O)C(=O)C2C31 (stereo unspecified) | > 42.4 µM (inactive) | > 41.7 µM (inactive) | > 41.4 µM (inactive) | > 100 µM (inactive) | > 42.6 µM (inactive) | > 100 µM (inactive) | > 100 µM (inactive) | > 46.1 µM (inactive) | > 67.5 µM (inactive) | > 100 µM (inactive) | > 100 µM (inactive) | > 100 µM (inactive) | > 74.3 µM (inactive) | > 100 µM (inactive) | 17.5 µM (inactive) | > 70.5 µM (inactive) | > 100 µM (inactive)
